From publication PMC10150354, “Linearization of the Brevicidine and Laterocidine Lipopeptides Yields Analogues That Retain Full Antibacterial Activity” (Journal of Medicinal Chemistry, 2023)
Where a SMILES comes first, the peptide text is derived from it. [ ]: non-standard residue; d: D form. The star is where a group is joined. ξ: configuration not given here. Hexanoyl(4ξ-Me) = CCC(C)CCC(=O)*; dOrn = NCCC[C@@H](N)C(=O)O; Orn = NCCC[C@H](N)C(=O)O

Test system: E. coli ATCC 25922
Type: cell-based, Escherichia coli
Conditions: (Supplement 2)
Protocol: Linear laterocidine (LL-OH, 4) and linear brevicidine (LB-OH, 5) were first synthesized by Fmoc SPPS, starting from 2-chlorotrityl (2-CT) chloride resin. The antibacterial activity of these peptides was then compared to brevicidine (1) and laterocidine (2) using minimum inhibitory concentration (MIC)/microbroth dilution assays (Table 1). The MICs of all peptides were determined against a panel of Gram-negative and Gram-positive ESKAPE pathogens. Additionally, a strain of E. coli carrying the mcr-1 gene was included in the panel. The mcr-1 gene is a transferrable plasmid that confers resistance against colistin, a last-resort antibiotic for Gram-negative infections, by reducing the overall negative charge of lipopolysaccharide (LPS) through modification of lipid A with phosphoethanolamine. The propensity for cationic antibiotics to bind to the cell membrane is therefore reduced. This gene has been observed in more than 27 bacterial species over six continents.[26] The spread of the mcr-1 gene could render colistin ineffectual; therefore, novel antibacterials are urgently required to overcome this form of resistance.
All minimum inhibitory concentrations (MICs) were determined according to Clinical and Laboratory Standards Institute (CLSI) guidelines. Blood agar plates were inoculated with glycerol stocks of E. coli ATCC 25922, K. pneumoniae ATCC 13883, A. baumannii ATCC 17961, P. aeruginosa PAO1, and S. aureus USA300. The inoculated agar plates were then incubated for 16 h at 37 °C. Individually grown colonies were subsequently used to inoculate 5 mL aliquots of TSB that were then incubated at 37 °C with shaking at 220 rpm. E. coli 25922 MCR-1 glycerol stock was used to inoculate 5 mL of TSB supplemented with kanamycin that was then incubated for 16 h at 37 °C with shaking at 220 rpm. The next day the culture was diluted 100-fold in TSB supplemented with kanamycin and incubated at 37 °C with shaking at 220 rpm. In parallel, the lipopeptide antibiotics DMSO stocks to be assessed were serially diluted with MHB in polypropylene 96-well plates (50 μL in each well). Colistin sulfate stocks were dissolved in water before being diluted with MHB. Aliquots of the inoculated TSB were incubated until an OD600 of around 0.5 was reached. The bacterial suspensions were then diluted with MHB (2 × 10^5 CFU/mL) and added to the microplates containing the test compounds (50 μL to each well). The well plates were sealed with an adhesive membrane and after 18 h of incubation at 37 °C with shaking at 600 rpm, the wells were visually inspected for bacterial growth. MIC values reported are based on three technical replicates and defined as the lowest concentration of the compound that prevented visible growth of bacteria.

| Structure (SMILES) | MIC (µg/mL) against E. coli (ATCC 25922) [µg/mL] |
| --- | --- |
| CCC(C)CCC(=O)N[C@H](CC(N)=O)C(=O)N[C@H](Cc1ccc(O)cc1)C(=O)N[C@H](Cc1c[nH]c2ccccc12)C(=O)N[C@H](CCCN)C(=O)N[C@@H](C)C(=O)NCC(=O)N[C@H](CCCN)C(=O)N[C@@H](Cc1c[nH]c2ccccc12)C(=O)N[C@H](C(=O)N[C@H](C(=O)NCC(=O)N[C@@H](CO)C(N)=O)[C@@H](C)CC)[C@@H](C)O (stereo partly drawn) [LB(Ala5)-NH2 (21)] ({Hexanoyl(4ξ-Me)}-[dN][dY][dW][dOrn]AG[dOrn]WTIGS-NH2) | >32 |
| CCC(C)CCC(=O)N[C@H](CC(N)=O)C(=O)N[C@H](Cc1ccc(O)cc1)C(=O)N[C@H](Cc1c[nH]c2ccccc12)C(=O)N[C@H](CCCN)C(=O)N[C@@H](CCCN)C(=O)NCC(=O)N[C@H](CCCN)C(=O)N[C@@H](C)C(=O)N[C@H](C(=O)N[C@H](C(=O)NCC(=O)N[C@@H](CO)C(N)=O)[C@@H](C)CC)[C@@H](C)O (stereo partly drawn) [LB(Ala8)-NH2 (24)] ({Hexanoyl(4ξ-Me)}-[dN][dY][dW][dOrn][Orn]G[dOrn]ATIGS-NH2) | >32 |
| CCC(C)CCC(=O)N[C@H](CC(N)=O)C(=O)N[C@H](Cc1ccc(O)cc1)C(=O)N[C@H](Cc1c[nH]c2ccccc12)C(=O)N[C@H](CCCN)C(=O)N[C@@H](CCCN)C(=O)NCC(=O)N[C@H](CCCN)C(=O)N[C@@H](Cc1c[nH]c2ccccc12)C(=O)N[C@H](C(=O)N[C@@H](C)C(=O)NCC(=O)N[C@@H](CO)C(N)=O)[C@@H](C)O (stereo partly drawn) [LB(Ala10)-NH2 (26)] ({Hexanoyl(4ξ-Me)}-[dN][dY][dW][dOrn][Orn]G[dOrn]WTAGS-NH2) | >32 |
| CCC(C)CCC(=O)N[C@H](CC(N)=O)C(=O)N[C@H](Cc1ccc(O)cc1)C(=O)N[C@H](Cc1c[nH]c2ccccc12)C(=O)N[C@H](CCCN)C(=O)N[C@@H](CCCN)C(=O)NCC(=O)N[C@H](C)C(=O)N[C@@H](Cc1c[nH]c2ccccc12)C(=O)N[C@H](C(=O)N[C@H](C(=O)NCC(=O)N[C@@H](CO)C(N)=O)[C@@H](C)CC)[C@@H](C)O (stereo partly drawn) [LB(D-Ala7)-NH2 (23)] ({Hexanoyl(4ξ-Me)}-[dN][dY][dW][dOrn][Orn]G[dA]WTIGS-NH2) | >32 |
| CCC(C)CCC(=O)N[C@H](CC(N)=O)C(=O)N[C@H](C)C(=O)N[C@H](Cc1c[nH]c2ccccc12)C(=O)N[C@H](CCCN)C(=O)N[C@@H](CCCN)C(=O)NCC(=O)N[C@H](CCCN)C(=O)N[C@@H](Cc1c[nH]c2ccccc12)C(=O)N[C@H](C(=O)N[C@H](C(=O)NCC(=O)N[C@@H](CO)C(N)=O)[C@@H](C)CC)[C@@H](C)O (stereo partly drawn) [LB(D-Ala2)-NH2 (18)] ({Hexanoyl(4ξ-Me)}-[dN][dA][dW][dOrn][Orn]G[dOrn]WTIGS-NH2) | >32 |
| CCC(C)CCC(=O)N[C@H](CC(N)=O)C(=O)N[C@H](Cc1ccc(O)cc1)C(=O)N[C@H](C)C(=O)N[C@H](CCCN)C(=O)N[C@@H](CCCN)C(=O)NCC(=O)N[C@H](CCCN)C(=O)N[C@@H](Cc1c[nH]c2ccccc12)C(=O)N[C@H](C(=O)N[C@H](C(=O)NCC(=O)N[C@@H](CO)C(N)=O)[C@@H](C)CC)[C@@H](C)O (stereo partly drawn) [LB(D-Ala3)-NH2 (19)] ({Hexanoyl(4ξ-Me)}-[dN][dY][dA][dOrn][Orn]G[dOrn]WTIGS-NH2) | >32 |
